Experimental data as given in ChEMBL document CHEMBL1201862, “PubChem BioAssay data set” (2004).
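Grown in 96-well plates, cells were treated for 48 hours with each compound at five concentrations. Insufficient inhibition: endpoint recorded as highest concentration tested. Here, GI50 denotes the concentration required for 50% inhibition of growth.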 Activity calls are given as the source filed them. Cut-off read from the data, not from the text of the source: active = GI50 up to about 1.1 µM and inactive = higher.

Tests used:
Test in all cases: inhibition of tumour cell growth, NCI panel, 48 h
MDA-MB-435 = system: MDA-MB-435
CCRF-CEM = system: CCRF-CEM
SK-MEL-5 = system: SK-MEL-5
SK-OV-3 = system: SK-OV-3
MOLT-4 = system: MOLT-4
OVCAR-5 = system: OVCAR-5
SF-295 = system: SF-295
SN12C = system: SN12C
Malme-3M = system: Malme-3M
TK-10 = system: TK-10
SK-MEL-2 = system: SK-MEL-2
MCF7 = system: MCF7
Hs-578T = system: Hs-578T
NCI-H23 = system: NCI-H23
M14 = system: M14
A549 = system: A549
SF-268 = system: SF-268
SNB-19 = system: SNB-19
KM12 = system: KM12
CAKI-1 = system: CAKI-1

SMILES	GI50 (MDA-MB-435)	GI50 (CCRF-CEM)	GI50 (SK-MEL-5)	GI50 (SK-OV-3)	GI50 (MOLT-4)	GI50 (OVCAR-5)	GI50 (SF-295)	GI50 (SN12C)	GI50 (Malme-3M)	GI50 (TK-10)	GI50 (SK-MEL-2)	GI50 (MCF7)	GI50 (Hs-578T)	GI50 (NCI-H23)	GI50 (M14)	GI50 (A549)	GI50 (SF-268)	GI50 (SNB-19)	GI50 (KM12)	GI50 (CAKI-1)
Clc1ccc2nc3c(c(-c4ccccc4)nn3-c3ccccc3)c(-c3ccccc3)c2c1	> 100 µM (inactive)	> 100 µM (inactive)	> 100 µM (inactive)	> 100 µM (inactive)	> 100 µM (inactive)	> 100 µM (inactive)	> 100 µM (inactive)	> 100 µM (inactive)	> 100 µM (inactive)	> 100 µM (inactive)	> 100 µM (inactive)	> 100 µM (inactive)	> 100 µM (inactive)	> 100 µM (inactive)	> 100 µM (inactive)	> 100 µM (inactive)	> 100 µM (inactive)	> 100 µM (inactive)	> 100 µM (inactive)	
CC(C)(C)OC(=O)N1C(OP(=O)(Oc2ccccc2)Oc2ccccc2)=CSc2ccccc21	31.3 µM (inactive)		28.2 µM (inactive)	57.8 µM (inactive)	20.1 µM (inactive)	68.9 µM (inactive)	29.3 µM (inactive)	56.6 µM (inactive)	27.7 µM (inactive)	35 µM (inactive)	19.1 µM (inactive)	28.5 µM (inactive)	45.8 µM (inactive)	37.4 µM (inactive)	25.8 µM (inactive)	67.8 µM (inactive)	59 µM (inactive)	43.2 µM (inactive)	32.8 µM (inactive)	18.8 µM (inactive)
[N-]=[N+]=Nc1ccc(NCCCCCC(=O)ON2C(=O)CCC2=O)c([N+](=O)[O-])c1	48.1 µM (inactive)		41.1 µM (inactive)	> 100 µM (inactive)	15.4 µM (inactive)	44.2 µM (inactive)	> 100 µM (inactive)	27.4 µM (inactive)	27.9 µM (inactive)	42.1 µM (inactive)	42.4 µM (inactive)	> 100 µM (inactive)	< 0.01 µM (active)	66.7 µM (inactive)	58.3 µM (inactive)	78.9 µM (inactive)	39.3 µM (inactive)	> 100 µM (inactive)	46.2 µM (inactive)	34.4 µM (inactive)
C/C(=N\Nc1nc2ccccc2s1)c1ccncn1	2.69 µM (inactive)	0.117 µM (active)	0.621 µM (active)	1.74 µM (inactive)	0.145 µM (active)	3.13 µM (inactive)	3.31 µM (inactive)	0.379 µM (active)	0.705 µM (active)		8.09 µM (inactive)	0.348 µM (active)	6.03 µM (inactive)	0.56 µM (active)	0.51 µM (active)	2.22 µM (inactive)	0.603 µM (active)	3.02 µM (inactive)	1.42 µM (inactive)	0.145 µM (active)
CCc1[nH]nc(C(N)=O)c1/N=N/N(C)C	64.6 µM (inactive)	28.2 µM (inactive)	70 µM (inactive)	91.6 µM (inactive)	6.46 µM (inactive)		39.7 µM (inactive)	44 µM (inactive)	78.3 µM (inactive)	> 100 µM (inactive)	> 100 µM (inactive)	30.9 µM (inactive)	67.9 µM (inactive)	54.1 µM (inactive)	> 100 µM (inactive)	43.5 µM (inactive)	47.2 µM (inactive)	> 100 µM (inactive)	56.5 µM (inactive)	24.8 µM (inactive)
O=C(NCCCCN(CCCNC(=O)C(F)(F)F)Cc1ccc2ccccc2c1)C(F)(F)F	19.3 µM (inactive)	> 10 µM (inactive)	19.2 µM (inactive)	23 µM (inactive)	24.2 µM (inactive)	17.2 µM (inactive)	16.7 µM (inactive)	16.1 µM (inactive)	15.3 µM (inactive)	20.4 µM (inactive)		14.7 µM (inactive)	17.7 µM (inactive)	20.1 µM (inactive)	16.7 µM (inactive)	30.4 µM (inactive)	16 µM (inactive)	14 µM (inactive)	17.5 µM (inactive)	14.3 µM (inactive)
CC(C)SC(NC(=O)C1C(C)(C)CCC1(C)C)C(=O)O (stereo not drawn)	> 100 µM (inactive)	> 100 µM (inactive)	> 100 µM (inactive)	> 100 µM (inactive)	> 10 µM (inactive)	> 100 µM (inactive)		> 100 µM (inactive)		> 100 µM (inactive)	> 100 µM (inactive)	> 100 µM (inactive)	> 100 µM (inactive)	> 100 µM (inactive)	> 100 µM (inactive)	> 100 µM (inactive)	> 100 µM (inactive)	> 100 µM (inactive)		
CCn1c(SCC(=O)NNC(=S)Nc2ccc(F)cc2)nc2ccccc2c1=O	> 100 µM (inactive)	> 100 µM (inactive)	> 100 µM (inactive)	> 100 µM (inactive)	44.4 µM (inactive)	> 100 µM (inactive)	> 100 µM (inactive)	> 100 µM (inactive)	> 100 µM (inactive)	> 100 µM (inactive)	> 100 µM (inactive)	> 100 µM (inactive)	> 100 µM (inactive)	> 100 µM (inactive)	> 100 µM (inactive)	> 100 µM (inactive)	79.8 µM (inactive)	> 100 µM (inactive)	> 100 µM (inactive)	
CCC(C)c1cnc(CC(C)C)c(=O)[nH]1 (stereo not drawn)	> 100 µM (inactive)	89.5 µM (inactive)	> 100 µM (inactive)	> 100 µM (inactive)	> 100 µM (inactive)	> 100 µM (inactive)	> 100 µM (inactive)	> 100 µM (inactive)		> 100 µM (inactive)	> 100 µM (inactive)	> 100 µM (inactive)	> 100 µM (inactive)	> 100 µM (inactive)	> 100 µM (inactive)	> 100 µM (inactive)	> 100 µM (inactive)	> 100 µM (inactive)	> 100 µM (inactive)	> 100 µM (inactive)
COC(=O)[C@@H]1C[C@@]2(C3C=CN(C(=O)C(F)(F)F)C=C3)c3ccccc3N(C(=O)C(F)(F)F)[C@H]2N1C(=O)OC	44.8 µM (inactive)	31.7 µM (inactive)	70 µM (inactive)	> 100 µM (inactive)	61.5 µM (inactive)	> 100 µM (inactive)	> 100 µM (inactive)	56.9 µM (inactive)	> 100 µM (inactive)	16.9 µM (inactive)		51.8 µM (inactive)	49.7 µM (inactive)	> 100 µM (inactive)	> 100 µM (inactive)	> 100 µM (inactive)	43 µM (inactive)	71.6 µM (inactive)	> 100 µM (inactive)	65.3 µM (inactive)
O=C(CSCC(=O)N/N=C\c1cc(Br)cc(Br)c1O)N/N=C\c1cc(Br)cc(Br)c1O	40.9 µM (inactive)		25 µM (inactive)	53.5 µM (inactive)	13 µM (inactive)	> 100 µM (inactive)	33.6 µM (inactive)	27.8 µM (inactive)	14.4 µM (inactive)	15.6 µM (inactive)	9.55 µM (inactive)	44.8 µM (inactive)	16.1 µM (inactive)	48.4 µM (inactive)	11.6 µM (inactive)	76.6 µM (inactive)	11.3 µM (inactive)	65.6 µM (inactive)	25.4 µM (inactive)	23.4 µM (inactive)
CCN(CC(COc1ccc2c(c1)[n+]([O-])nc(N)[n+]2[O-])OC(C)=O)C(C)=O (stereo not drawn)	90.4 µM (inactive)	48.2 µM (inactive)	32 µM (inactive)	15.2 µM (inactive)	20.8 µM (inactive)	> 100 µM (inactive)	> 100 µM (inactive)	> 100 µM (inactive)		> 100 µM (inactive)	> 100 µM (inactive)	> 100 µM (inactive)	51.3 µM (inactive)	49.5 µM (inactive)	89.3 µM (inactive)	68.2 µM (inactive)	56 µM (inactive)	> 100 µM (inactive)	95.5 µM (inactive)	> 100 µM (inactive)
COc1c(-c2nc3ccc(N4CCN(C)CC4)nc3[nH]2)cc(OC)c2[nH]c(COC(C)=O)nc12	26.5 µM (inactive)		16.2 µM (inactive)	14.5 µM (inactive)		55.7 µM (inactive)	34.4 µM (inactive)	20.4 µM (inactive)	28.1 µM (inactive)	38.5 µM (inactive)	19.5 µM (inactive)	17.2 µM (inactive)	> 100 µM (inactive)	32.2 µM (inactive)	19.5 µM (inactive)	39.5 µM (inactive)	61.8 µM (inactive)	28.1 µM (inactive)	23.9 µM (inactive)	> 100 µM (inactive)
CC(C)C1=CC23CCC4C(C)(C(=O)O)CCCC4(C)C2CC1C1C(=O)N(c2ccccc2N2C(=O)C4C5CC6C7(C)CCCC(C)(C(=O)O)C7CCC6(C=C5C(C)C)C4C2=O)C(=O)C13 (stereo not drawn)	3.63 µM (inactive)	4.39 µM (inactive)	5.83 µM (inactive)		2.85 µM (inactive)	12.2 µM (inactive)		9.06 µM (inactive)	13.1 µM (inactive)	13.1 µM (inactive)	12.2 µM (inactive)	3.66 µM (inactive)	9.55 µM (inactive)	2.47 µM (inactive)	5.24 µM (inactive)	14 µM (inactive)	3.09 µM (inactive)	4.79 µM (inactive)	3.09 µM (inactive)	
COc1ccc(/C=C\c2cc(OC)c(OC)c(OC)c2)cc1OC(=O)CC(N)C(=O)O (stereo not drawn)	0.000146 µM (active)	0.000418 µM (active)		0.00423 µM (active)	0.00366 µM (active)	0.327 µM (active)	0.0021 µM (active)	0.00521 µM (active)	0.00258 µM (active)	0.519 µM (active)		0.00733 µM (active)	0.000426 µM (active)	0.0021 µM (active)	0.00247 µM (active)	0.00449 µM (active)	0.00305 µM (active)	0.0118 µM (active)	0.00365 µM (active)	0.307 µM (active)
